The record followed here is PMC2673918 (Journal of natural products, 2009).

One test concerns chymotrypsin. Put plainly: chymotrypsin inhibition. In kind it is biochemical. The following applies: at concentrations up to 100 µg/mL.
The test system of the next test is trypsin. As to the kind of experiment: trypsin inhibition. The following applies: at concentrations up to 100 µg/mL. In kind it is biochemical.

As for Anabaenopeptin 908 [Compound 3], the “chymotrypsin inhibition (qualitative)” value in the test with chymotrypsin is “did not observe trypsin/chymotrypsin inhibition”. The “trypsin inhibition (qualitative)” value in the test on trypsin is listed as “did not observe trypsin/chymotrypsin inhibition”.
For Anabaenopeptin 915 [Compound 4], in the test on chymotrypsin, the “chymotrypsin inhibition (qualitative)” value was “did not observe trypsin/chymotrypsin inhibition”. The “trypsin inhibition (qualitative)” value with trypsin is reported as “did not observe trypsin/chymotrypsin inhibition”.
